{
  "source": "patent US20080234291A1",
  "about": "“Mitratapide Oral Solution” (priority 2004, published 2008)",
  "key": {"[1]": {"assay": "solubility of mitratapide in different pharmaceutical solvents", "type": "physicochemical", "details": "about 22° C."}, "[2]": {"assay": "solubility of mitratapide in water", "type": "physicochemical", "method": "Since mitratapide has a solubility of less than 0.5 μg/ml in water, which can be increased to 0.4 mg/ml at a pH of 1.2, the presence of a solubilizing agent is necessary for the preparation of aqueous solutions. Hydroxypropyl-β-cyclodextrin (HP-β-CD) is a suitable solubilizing agent with which mitratapide forms higher order water soluble complexes. In order to obtain an aqueous solution comprising mitratapide with a concentration of 5 mg/ml it is necessary to use HP-β-CD in an amount of 250 mg/ml and adjusting the pH to 4. Furthermore it is necessary to add an antimicrobial preservative to these aqueous HP-β-CD solutions to protect them against microbial spoilage during manufacture or use. The addition of benzoic acid, a well known antimicrobial preservative for acidic aqueous solutions having a pH ≦4.5, however caused a precipitation of mitratapide probably due to a competition between mitratapide and benzoic acid for inclusion into the HP-β-CD cavity. To compensate, the HP-β-CD concentration had to be increased from 250 mg/ml to 400 mg/ml to solubilize mitratapide at a concentration of 5 mg/ml. […]"}},
  "data": [
    {"smiles": "CCC(C)n1ncn(-c2ccc(N3CCN(c4ccc(OCC5COC(CSc6nncn6C)(c6ccc(Cl)cc6)O5)cc4)CC3)cc2)c1=O", "note": "(stereo not drawn) [mitratapide, (−)-[2S-[2α,4α(S*)]]-4-[4-[4-[4-[[2-(4-chlorophenyl)-2-[[(4-methyl-4H-1,2,4-triazol-3-yl)thio]methy]-1,3-dioxolan-4-yl]methoxy]pheny]-1-piperazinyl]phenyl]-2,4-dihydro-2-(1-methylpropyl)-3H-1,2,4-triazol-3-one]", "values": [
      {"measurement": "solubility", "setting": "[1]; caprylic/capric/linoleic acid triglyceride (Miglyol 818), oil or lipid, caprylidcapridlinoleic acid triglyceride (Miglyol 818 ®)", "result": "< 5000", "unit": "µg/mL"},
      {"measurement": "solubility", "setting": "[1]; oil or lipid, apricot Kernel oil PEG-6 complex (Labrafil 1944CS ®)", "result": "< 5000", "unit": "µg/mL"},
      {"measurement": "solubility", "setting": "[1]; oil or lipid, caprylic/capric acid triglyceride (Miglyol 812 ®)", "result": "< 5000", "unit": "µg/mL"},
      {"measurement": "solubility", "setting": "[1]; oil or lipid, caprylic/capric diester of propylene glycol", "result": "< 5000", "unit": "µg/mL"},
      {"measurement": "solubility", "setting": "[1]; oil or lipid, caprylic/capric/succinic acid triglyceride (Miglyol 829 ®)", "result": "< 5000", "unit": "µg/mL"},
      {"measurement": "solubility", "setting": "[1]; oil or lipid, caprylocaproyl-8 glyceride (Labrasol ®)", "result": "> 5000", "unit": "µg/mL"},
      {"measurement": "solubility", "setting": "[1]; oil or lipid, corn oil PEG-6 complex (Labrafil 2125CS ®)", "result": "< 5000", "unit": "µg/mL"},
      {"measurement": "solubility", "setting": "[1]; oil or lipid, sesame oil", "result": "< 50", "unit": "µg/mL"},
      {"measurement": "solubility", "setting": "[1]; organic solvent or mixture, diethylene glycol monoethyl ether (Transcutol ®)", "result": "> 5000", "unit": "µg/mL"},
      {"measurement": "solubility", "setting": "[1]; organic solvent or mixture, dimethyl isosorbide (2,5-di-O-methyl-1,4:3,6-dianhydro D-glucitol)", "result": "> 5000", "unit": "µg/mL"},
      {"measurement": "solubility", "setting": "[1]; propylene glycol monolaurate (Lauroglycol), oil or lipid, Dropylene glycol monolaurate (Lauroglycol ®)", "result": "> 5000", "unit": "µg/mL"},
      {"measurement": "solubility", "setting": "[2]; water at pH 1.2, pH 1.2, simulated gastric fluid, pH of 1.2, read-out: solubility in water at pH 1.2", "result": 400, "unit": "µg/mL"},
      {"measurement": "solubility", "setting": "[2]; water, read-out: solubility in water", "result": "< 0.5", "unit": "µg/mL"}
    ]}
  ]
}
